Assay results published in publication PMC10976043, “Function and Mechanism of Antiviral Wasp Venom Peptide Protopolybia-MP III and Its Derivatives against HSV-1” (Toxins, 2024).
Ends that are not written are not given here.

Assays:
HSV-1 = HSV-1 life cycle stage assay (different modes of peptide treatment), qPCR; format: cell-based, herpes simplex virus type 1
Description: To determine the exact step at which Protopolybia-MP III blocks HSV-1 infection, we conducted an experiment with different modes of peptide treatment in Vero cells (Figure 3A). […] Then, we detected the protective effect of Protopolybia-MP III by pretreating Vero cells with 20 μg/mL Protopolybia-MP III before HSV-1 infection.
Figure 3 Protopolybia-MP III inhibits multiple phases of the HSV-1 life cycle. (A) Schematic diagram for studying stage at which Protopolybia-MP III acts on the HSV-1 life cycle. (B) Effects of Protopolybia-MP III on the attachment, entry/fusion, and post-entry stages of the HSV-1 life cycle. Vero cells were infected with HSV-1 at an MOI of 1 and treated with 20 μg/mL Protopolybia-MP III as described in (A). After 24 h, cells were collected, and intracellular HSV-1 RNA was analyzed by qPCR. (C) The effect of Protopolybia-MP III on cell protection against HSV-1 infection. Vero cells were treated with 20 μg/mL Protopolybia-MP III or PBS and infected with HSV-1 at an MOI of 1 as described in (A). After 24 h, the cells were collected, and intracellular HSV-1 RNA was analyzed by qPCR. ns, no significance. ** p < 0.01. *** p < 0.001.
Cells were collected and lysed using TRIzol reagent (Beyotime Biotechnology, Shanghai, China) to release the intracellular total RNA, followed by precipitation with isopropanol. The first-strand cDNA was reverse-transcribed by the HiScript III 1st Strand cDNA Synthesis Kit (+gDNA wiper) (Vazyme, Nanjing, China). The cDNA was quantitated by qPCR with primers using Taq Pro Universal SYBR qPCR Master Mix (Vazyme). The HSV-1 primers were 5′-[…]-3′ (sense) and 5′-[…]-3′ (antisense). The monkey GAPDH primers were 5′-[…]-3′ (sense) and 5′-[…]-3′ (antisense). The human GAPDH primers were 5′-[…]-3′ (sense) and 5′-[…]-3′ (antisense). qPCR experiments were performed on a Bio-Rad CFX96 Touch (Pleasanton, CA, USA) according to the manufacturer’s instructions.

HSV-1 virion = experiment: Virion integrity assay (ultracentrifugation/gB Western blotting, electron microscopy); design: species or system herpes simplex virus type 1; details: 20 μg/mL with HSV-1 at 37 °C 1 h
Description: Figure 5 Protopolybia-MP III destroys the integrity of HSV-1 free virions. (A) Schematic diagram for studying the effect of Protopolybia-MP III on HSV-1 free virion infectivity. (B) Effects of Protopolybia-MP III on HSV-1 free virion infectivity at different temperatures. HSV-1 (MOI = 1) and 20 μg/mL Protopolybia-MP III or PBS were coincubated at 4 °C, 22 °C, and 37 °C for 1 h, and then Vero cells were infected as described in (A). After 24 h, cells were collected, and intracellular HSV-1 RNA was analyzed by qPCR. (C) Effects of different concentrations of Protopolybia-MP III on HSV-1 free virion infectivity. HSV-1 (MOI = 1) and 1 or 10 μg/mL Protopolybia-MP III or PBS were coincubated at 37 °C for 1 h, and then Vero cells were infected as described in (A). After 24 h, cells were collected, and intracellular HSV-1 RNA was analyzed by qPCR. (D,E) The effect of Protopolybia-MP III on HSV-1 free virion integrity. HSV-1 and 20 μg/mL Protopolybia-MP III or PBS were coincubated at 37 °C for 1 h. Then, after centrifuging for 2 h at 40,000 rpm at 4 °C, the contents of HSV-1 gB in the supernatant and precipitate were detected by Western blotting (D). In addition, the structure of HSV-1 virions after incubation with Protopolybia-MP III was observed by electron microscopy. The red arrow points to a destroyed HSV-1 virion. *** p < 0.001.
HSV-1 virions were coincubated with PBS or 20 μg/mL Protopolybia-MP III at 37 °C for 1 h. Then, the virions were separated by ultracentrifugation at 40,000 rpm at 4 °C for 2 h in a Beckman SW41 rotor (Beckman Coulter, Brea, CA, USA). The supernatant was collected and lyophilized using a vacuum freeze dryer (Labconco FreeZone6L, Kansas City, MO, USA). HSV-1 glycoprotein gB from both the precipitate and supernatant components were measured by Western blotting. In addition, after HSV-1 was coincubated with PBS or 20 μg/mL Protopolybia-MP III at 37 °C for 1 h, samples were placed on 200-mesh var/carbon-coated copper grids by dipping the grids into the virion sample solutions. […]

[1] = Vero cells, 20 μg/mL, HSV-1 MOI 1, 24 h, qPCR of HSV-1 RNA
[2] = ultracentrifugation 40,000 rpm 2 h 4 °C, Western blotting

Question: “INWLKLGKAVIDAL-NH2 [Protopolybia-MP III]” was tested. Which “protection of cells from HSV-1 infection (pretreatment)” value (HSV-1; Vero cells pretreated with 20 μg/mL before HSV-1 infection, MOI 1, 24 h, qPCR) did it give?
Answer: almost no effect

Question: And the “inhibitory rate, attachment stage of the HSV-1 life cycle” value (HSV-1; [1])?
Answer: 57%

Question: And the “inhibitory rate, entry/fusion stage of the HSV-1 life cycle” value (HSV-1; [1])?
Answer: 84%

Question: And the “inhibitory rate, post-entry stage of the HSV-1 life cycle” value (HSV-1; [1])?
Answer: 66%

Question: And the “HSV-1 virion structure by electron microscopy” value (HSV-1 virion; negative staining)?
Answer: destroyed

Question: And the “gB content in the precipitate compared with PBS treatment” value (HSV-1 virion; [2])?
Answer: significantly reduced

Question: And the “gB content in the supernatant compared with PBS treatment” value (HSV-1 virion; [2])?
Answer: increased
